This passage reports IC50 results from ChEMBL document CHEMBL1921771, “Structure-activity relationships of ganoderma acids from Ganoderma lucidum as aldose reductase inhibitors” (Bioorg Med Chem Lett, 2011).

The assay addresses Aldo-keto reductase family 1 member B1 (Homo sapiens, UniProt P15121). Description: Inhibition of recombinant human aldose reductase using dl-glyceraldehyde as substrate after 10 mins by spectrophotometry.

As usually defined, the IC50 is the concentration that inhibits the measured activity by half. As to `CC(CC(=O)C[C@@H](C)[C@H]1CC(=O)[C@@]2(C)C3=C(C(=O)[C@@H](O)[C@]12C)[C@@]1(C)CC[C@H](O)C(C)(C)[C@@H]1CC3=O)C(=O)O` (some centres not stated) [GANODERIC ACID C6], the IC50 is > 193 µM. For `CC(=O)O[C@@H]1C(=O)C2=C([C@@H](O)C[C@H]3C(C)(C)[C@@H](O)CC[C@]23C)[C@]2(C)C(=O)C[C@H]([C@H](C)CC(=O)CC(C)C(=O)O)[C@@]12C` (some centres not stated) [GANODERIC ACID K] the value was > 174 µM; for `COC(=O)C(C)CC(=O)C[C@@H](C)[C@H]1C[C@H](O)[C@@]2(C)C3=C(C(=O)C[C@]12C)[C@@]1(C)CCC(=O)C(C)(C)[C@@H]1C[C@@H]3O` (some centres not stated) [METHYL GANODERATE A], > 189 µM. Turning to `COC(=O)C(C)CC(=O)/C=C(\C)[C@H]1C[C@H](O)[C@@]2(C)C3=C(C(=O)C[C@]12C)[C@@]1(C)CCC(=O)C(C)(C)[C@@H]1C[C@@H]3O` (some centres not stated) [METHYL GANODERENATE A], the IC50 was > 184 µM. As to `CC(CC(=O)C[C@@H](C)[C@H]1CC(=O)[C@@]2(C)C3=C(C(=O)C[C@]12C)[C@@]1(C)CCC(=O)C(C)(C)[C@@H]1C[C@@H]3O)C(=O)O` (some centres not stated) [GANODERIC ACID D], the IC50 was > 195 µM. Consider `C[C@H](CC(=O)C[C@@H](C)[C@H]1C[C@H](O)[C@@]2(C)C3=C(C(=O)C[C@]12C)[C@@]1(C)CCC(=O)C(C)(C)[C@@H]1C[C@@H]3O)C(=O)O` [GANODERIC ACID A], for which the IC50 is > 193 µM. For `CC(CC(=O)C[C@@H](C)[C@H]1CC(=O)[C@@]2(C)C3=C(C(=O)[C@@H](O)[C@]12C)[C@@]1(C)CC[C@H](O)C(C)(C)[C@@H]1C[C@@H]3O)C(=O)O` (some centres not stated) [GANODERIC ACID G], the IC50 is > 188 µM.

For `CC(CC(=O)C[C@@H](C)[C@H]1C[C@H](O)[C@@]2(C)C3=C(C(=O)C[C@]12C)[C@@]1(C)CC[C@H](O)C(C)(C)[C@@H]1CC3)C(=O)O` (some centres not stated) [GANOLUCIDIC ACID B], the IC50 was > 199 µM. Regarding `CC(=O)O[C@@H]1C(=O)C2=C(C(=O)C[C@H]3C(C)(C)[C@@H](O)CC[C@]23C)[C@]2(C)C(=O)C[C@H]([C@H](C)CC(=O)CC(C)C(=O)O)[C@@]12C` (some centres not stated) [GANODERIC ACID H], the IC50 is > 175 µM. For `CC(CC(=O)C[C@@H](C)[C@H]1C[C@H](O)[C@@]2(C)C3=C(C(=O)C[C@]12C)[C@@]1(C)CCC(=O)C(C)(C)[C@@H]1CC3=O)C(=O)O` (some centres not stated) [GANODERIC ACID J] the value was > 194 µM.

For the compound `C/C(=C\C(=O)CC(C)C(=O)O)[C@H]1C[C@H](O)[C@@]2(C)C3=C(C(=O)C[C@]12C)[C@@]1(C)CCC(=O)C(C)(C)[C@@H]1C[C@@H]3O` (some centres not stated) [GANODERENIC ACID A], the IC50 is 119 µM. With `COC(=O)[C@H](C)CC(=O)C[C@@H](C)[C@H]1C[C@H](O)[C@@]2(C)C3=C(C(=O)C[C@]12C)[C@@]1(C)CC[C@H](O)C(C)(C)[C@@H]1C[C@@H]3O`, the IC50 is > 184 µM. In the case of `CC(CC(=O)C[C@@H](C)[C@H]1CC(=O)[C@@]2(C)C3=C([C@@H](O)C[C@]12C)[C@@]1(C)CCC(=O)C(C)(C)[C@@H]1C[C@@H]3O)C(=O)O` (some centres not stated) [GANODERIC ACID DF] it was 22.8 µM. For `C[C@H](CC(=O)C[C@@H](C)[C@H]1CC(=O)[C@@]2(C)C3=C(C(=O)C[C@]12C)[C@@]1(C)CCC(=O)C(C)(C)[C@@H]1C[C@@H]3O)C(=O)O` [GANODERIC ACID C1] the value was > 194 µM; for `COC(=O)C(C)CC(=O)C[C@@H](C)[C@H]1CC(=O)[C@@]2(C)C3=C([C@@H](O)C[C@]12C)[C@@]1(C)CCC(=O)C(C)(C)[C@@H]1C[C@@H]3O` (some centres not stated), > 189 µM. In the case of `CC(CC(=O)C[C@@H](C)[C@H]1CC(=O)[C@@]2(C)C3=C(C(=O)C[C@]12C)[C@@]1(C)CC[C@H](O)C(C)(C)[C@@H]1C[C@@H]3O)C(=O)O` (some centres not stated) [GANODERIC ACID B], the IC50 was > 193 µM.

In the case of `C[C@H](CC(=O)C[C@@H](C)[C@H]1C[C@H](O)[C@@]2(C)C3=C(C(=O)C[C@]12C)[C@@]1(C)CC[C@H](O)C(C)(C)[C@@H]1C[C@@H]3O)C(=O)O` [GANODERIC ACID C2], the IC50 stood at 43.8 µM.
